Measured values published in patent US11214803B2, “Modulators of YAP1 expression” (Ionis Pharmaceuticals, Inc., priority 2019, dated 2022).
Strand notation (5' to 3'): a small letter for the sugar, then the base; units joined by * are phosphorothioate-linked, units joined directly phosphodiester-linked; [ ] holds rarer units or linkages, { } end groups; capitals alone tell only the bases. e = 2'-O-(2-methoxyethyl) (MOE); k = constrained ethyl (cEt); [5mC] = 5-methylcytosine; d = 2'-deoxy (DNA)

What was measured:
Assay type in all cases: cell-based
[1] = test system: Yap1 mRNA; assay: Dose-dependent inhibition of human Yap1 in A-431 cells (Example 7, 10,000 cells per well, RTS36584); conditions: free uptake
Method: Modified oligonucleotides described in the studies above were tested at various doses in A-431 cells. Cultured A-431 cells at a density of 10,000 cells per well were treated using free uptake with modified oligonucleotides diluted to concentrations described in the tables below. After approximately 48 hours, Yap1 mRNA levels were measured as previously described using the Human Yap1 primer-probe set RTS36584. Yap1 mRNA levels were normalized to total RNA content, as measured by RIBOGREEN®. Results are presented in the tables below as percent control of the amount of Yap1 mRNA relative to untreated control cells (% UTC). IC50s were calculated using a linear regression on a log/linear plot of the data in excel.

[2] = test system: Yap1 mRNA; assay: Dose-dependent inhibition of human Yap1 in A-431 cells (Example 8, 10,000 cells per well, RTS4814); conditions: free uptake, approximately 48 hours, RTS4814; for Yap1 mRNA, % UTC: A-431 cells, 10,000 cells per well; for IC50: A-431 cells, linear regression on log/linear plot
Method in brief: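 Yap1 mRNA, normalized to RIBOGREEN total RNA and expressed as % untreated control, was read with RTS4814 about 48 h after free-uptake oligonucleotide treatment of A-431 cells at 10,000 cells/well. IC50 derived by linear regression of log/linear data.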

[3] = test system: Yap1 mRNA; assay: Dose-dependent inhibition of human Yap1 in SNU-449 cells (Example 9, RTS36584); conditions: free uptake; for % UTC (Yap1 mRNA): approximately 48 hours; for IC50: linear regression on a log/linear plot
Method in brief: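 Read-out was Yap1 mRNA (primer-probe RTS36584) normalised to total RNA by RIBOGREEN, given as % of untreated cells, with IC50 fitted by linear regression of log/linear data. Oligonucleotides were dosed by free uptake to SNU-449 cells, 10,000/well, for ~48 h.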

[4] = 15.6 nM, A-431 cells, 10,000 cells per well, approximately 48 hours
[5] = 62.5 nM, A-431 cells, 10,000 cells per well, approximately 48 hours
[6] = 4000.00 nM, A-431 cells, 10,000 cells per well, approximately 48 hours
[7] = A-431 cells, approximately 48 hours, linear regression on log/linear plot

958485 (kA*kG*kA*dG*dG*dT*d[5mC]*dA*dG*d[5mC]*dA*dA*dT*kA*k[5mC]*kA; antisense) [compound 958485]
Yap1 mRNA, % UTC [1, 4]: 68 % UTC
Yap1 mRNA, % UTC [1, 5]: 38 % UTC
Yap1 mRNA, % UTC [1, 6]: 8 % UTC
IC50 [1, 7]: 40 nM

958541 (kG*kT*kA*dT*dT*d[5mC]*dT*dA*dT*d[5mC]*d[5mC]*dA*dG*kG*kG*kT; antisense) [compound 958541]
Yap1 mRNA, % UTC ([1]; Table 57, 15.6 nM, A-431 cells 10,000 cells per well, 48 hours): 81 % UTC
Yap1 mRNA, % UTC ([1]; Table 57, 62.5 nM, A-431 cells 10,000 cells per well, 48 hours): 51 % UTC
Yap1 mRNA, % UTC ([1]; Table 57, 4000.00 nM, A-431 cells 10,000 cells per well, 48 hours): 9 % UTC
IC50 ([1]; Table 57, A-431 cells 10,000 cells per well): 100 nM

958734 (kA*k[5mC]*kA*d[5mC]*dA*dT*dA*dG*dA*dG*d[5mC]*dT*dA*kA*kG*kG; antisense) [compound 958734]
Yap1 mRNA, % UTC [1, 4]: 87 % UTC
Yap1 mRNA, % UTC [1, 5]: 65 % UTC
Yap1 mRNA, % UTC [1, 6]: 15 % UTC
IC50 [1, 7]: 100 nM

958615 (kT*kG*kG*dT*d[5mC]*dT*dT*dG*dT*dT*d[5mC]*dT*dT*kA*kT*kG; antisense) [compound 958615]
Yap1 mRNA, % UTC [1, 4]: 91 % UTC
Yap1 mRNA, % UTC [1, 5]: 60 % UTC
Yap1 mRNA, % UTC [1, 6]: 18 % UTC
IC50 [1, 7]: 100 nM

1074464 (kT*kT*kA*dG*dA*dG*dT*dA*dT*dG*dT*dG*dG*k[5mC]*kA*kA) [compound 1074464]
Yap1 mRNA, % UTC ([2]; 31.3 nM): 25 % UTC
Yap1 mRNA, % UTC ([2]; 125.0 nM): 6 % UTC
Yap1 mRNA, % UTC ([2]; 500.0 nM): 3 % UTC
Yap1 mRNA, % UTC ([2]; 2000.00 nM): 3 % UTC
IC50 [2]: < 20 nM
% UTC (Yap1 mRNA) ([3]; 31.3 nM): 109 % UTC
% UTC (Yap1 mRNA) ([3]; 125.0 nM): 50 % UTC
% UTC (Yap1 mRNA) ([3]; 500.0 nM): 19 % UTC
% UTC (Yap1 mRNA) ([3]; 2000.00 nM): 6 % UTC
IC50 [3]: 200 nM

1074728 (antisense kT*kG*kA*dG*dG*dT*dA*dT*dA*dA*d[5mC]*dT*dG*kG*kG*k[5mC]) [compound 1074728]
Yap1 mRNA, % UTC ([2]; 31.3 nM): 28 % UTC
Yap1 mRNA, % UTC ([2]; 125.0 nM): 7 % UTC
Yap1 mRNA, % UTC ([2]; 500.0 nM): 4 % UTC
Yap1 mRNA, % UTC ([2]; 2000.00 nM): 4 % UTC
IC50 [2]: < 20 nM
% UTC (Yap1 mRNA) ([3]; 31.3 nM): 69 % UTC
% UTC (Yap1 mRNA) ([3]; 125.0 nM): 45 % UTC
% UTC (Yap1 mRNA) ([3]; 500.0 nM): 19 % UTC
% UTC (Yap1 mRNA) ([3]; 2000.00 nM): 8 % UTC
IC50 [3]: 100 nM

1198552 (kA*kG*kA*dG*dT*dA*dT*dG*dT*dG*dG*d[5mC]*kA*kA*kT*eA; antisense) [compound 1198552]
% UTC (Yap1 mRNA) ([3]; 31.3 nM): 72 % UTC
% UTC (Yap1 mRNA) ([3]; 125.0 nM): 46 % UTC
% UTC (Yap1 mRNA) ([3]; 500.0 nM): 23 % UTC
% UTC (Yap1 mRNA) ([3]; 2000.00 nM): 9 % UTC
IC50 [3]: 100 nM

1198409 (kA*dG*dT*dG*d[5mC]*dT*dT*dT*dG*dG*dA*kA*eG*kA*eT*k[5mC]; antisense) [compound 1198409]
% UTC (Yap1 mRNA) ([3]; 31.3 nM): 100 % UTC
% UTC (Yap1 mRNA) ([3]; 125.0 nM): 68 % UTC
% UTC (Yap1 mRNA) ([3]; 500.0 nM): 45 % UTC
% UTC (Yap1 mRNA) ([3]; 2000.00 nM): 27 % UTC
IC50 [3]: 400 nM

1198371 (kA*dT*dT*dG*dT*d[5mC]*dT*d[5mC]*dA*dT*dG*k[5mC]*e[5mC]*kT*eT*kA; antisense) [compound 1198371]
% UTC (Yap1 mRNA) ([3]; 31.3 nM): 85 % UTC
% UTC (Yap1 mRNA) ([3]; 125.0 nM): 66 % UTC
% UTC (Yap1 mRNA) ([3]; 500.0 nM): 46 % UTC
% UTC (Yap1 mRNA) ([3]; 2000.00 nM): 21 % UTC
IC50 [3]: 300 nM
